Assay results published in patent publication US11629174B2, “Cryptic metabolites and method for activating silent biosynthetic gene clusters in actinomycete bacteria” (The Trustees of Princeton University, priority 2017, dated 2023).
Like-named read-outs stand apart in the source and are kept apart here. Square brackets hold non-standard residues; d marks the D form. Peptide text beside a SMILES is read from it. * marks the point of attachment. ξ: configuration not given here. dIle(3ξ) = CCC(C)[C@@H](N)C(=O)O; Ile(3ξ) = CCC(C)[C@H](N)C(=O)O; ξK = NCCCCC(N)C(=O)O; Butyryl = CCCC(=O)*

Legend:
Gene cluster 2631 = test: HiTES in S. erythraea, gene cluster 2631; format: cell-based; conditions: FIG. 10
Gene cluster 3648 = test: HiTES in S. avermitilis, gene cluster 3648; format: cell-based; conditions: FIGS. 16 and 17
Gene cluster 4477 = test: HiTES in S. erythraea, gene cluster 4477; format: cell-based; conditions: FIG. 14
Gene cluster 4143 = test: HiTES in S. erythraea, gene cluster 4143; format: cell-based; conditions: FIG. 12
Gene cluster 4286 = test: HiTES in S. erythraea, gene cluster 4286; format: cell-based; conditions: FIG. 13
S. cerevisiae = test: Antifungal microtiter assay; format: cell-based; conditions: Saccharomyces cerevisiae, 40 h, OD600
Experimental: Bacillus subtilis 168, E. coli K 12, Pseudomonas aeruginosa PAO1, Enterococcus faecalis OG1RF, Staphylococcus aureus Newman, Saccharomyces cerevisiae and Saccharomyces pombe were used for antibiotic assays. B. subtilis (30° C.), E. coli (37° C.), P. aeruginosa (30° C.), and E. faecalis (37° C.) were cultured in LB medium at the temperatures indicated. S. aureus was cultured in Brain-Heart-Infusion (BHI) medium at 37° C. S. cerevisiae and S. pombe were grown at 25° C. in YPM medium (0.5% yeast extract, 0.3% peptone, 2.5% mannitol), and YES medium (0.5% yeast extract, 3% glucose, 225 mg/L leucine, 225 mg/L histidine, 225 mg/L adenine, 225 mg/L uracil), respectively. The assays were carried out in accordance with the 2003 guidelines of the Clinical and Laboratory Standards Institute (CLSI) using the microtiter method. Briefly, microbial seed cultures were initiated by inoculating 3 mL of the indicated medium each strain and by growing these overnight at the indicated temperatures. Each culture was then diluted to an initial OD600 nm of 0.02 in 100 μL volume per well in a 96-well plate, which gave an inoculum of ˜5×10^5 to 5×10^6 cells. […] The plates were then incubated at the temperatures listed above without shaking and OD600 nm determined after 16 h (bacteria) or 40 h (yeast). […]

[1] = system: 36 diverse cancer cell lines; conditions: cited from earlier work
surA and surC = test: RT-qPCR of surA and surC transcripts in wt S. albus; format: cell-based, Streptomyces albus J1074; conditions: for induction of surA and surC: mRNA vs DMSO control, wt S. albus
Experimental: In the example above, the effects of these putative elicitors on the sur cluster were validated by performing a RT-qPCR with wt S. albus. Upon exposure of S. albus to each elicitor or DMSO (control), total RNA was be isolated, converted to cDNA and the surA and surC transcripts quantified by qPCR. […] To further verify the effect of 1 and 2, a dose-response assay was carried out. With both elicitors, a concentration-dependent induction of sur was observed, yielding optimal upregulation at a final concentration of ˜23 μM (etoposide) and −30 μM (ivermectin) (FIG. 4B). These concentrations induced a ˜10-fold (etoposide) and 4.5-fold (ivermectin) upregulation of surC.
All operations involving RNA utilized a dedicated RNase-free work area. To commence the experiment, seed cultures of wt S. albus J1074 were prepared by inoculating 3 ml of TSBY medium (3% (w/v) tryptic soy broth and 0.5% yeast extract) in a sterile 14 ml bacterial culture tube with freshly-prepared spores (˜10^7). The culture was incubated at 30° C. and 250 rpm in an Ecotron Shaker (ATR). After 48 hours cultivation, the cells were collected by centrifugation and subsequently diluted to a final concentration of 0.05% (w/v) in 250 ml Erlenmeyer flask containing 50 ml of R4 medium. Desired elicitors were added to final concentrations indicated in the figures (typically 1-100 μM), and the cultures were incubated at 30° C. and 250 rpm. After 48 h, 1 ml was removed from each sample and transferred to a 1.5 ml RNase-free Eppendorf tube (Ambion). Each sample was centrifuged (16,000 g, 3 min) to collect the cells, the supernatant discarded, the cells flash-frozen in liquid N2, and stored at −80° C.
RNA isolation was carried out using the Qiagen RNeasy kit following the manufacturer's instructions without modifications. Upon isolation, contaminating DNA was removed using the DNA-free kit (Ambion) according to manufacturer's instructions. Gel electrophoreses subsequently confirmed RNA integrity (FIG. S2). Finally, total RNA was converted into cDNA via the PrimeScript™ RT reagent Kit (Takara) using random hexamers as primers and 500 ng of each RNA sample as template.
Three genes (surA, surC and surR) were chosen for quantification by RT-qPCR. The primers were designed using primer-3-plus software available online. The primers were carefully chosen to give an amplicon length of 130-160 bp and a melting temperature of 60° C., though this was later optimized (see below and Table 2). The primers were chosen to vary in length between 18-22 bp, and, if possible, to contain a single G/C clamp at the 3′ end. To ensure optimal qPCR parameters, the genomic DNA of S. albus J1074 was isolated using the Wizard genomic DNA purification kit (Promega), and each amplicon was subsequently amplified using standard PCR conditions with a high-fidelity, proof-reading Q5 DNA polymerase (NEB). The PCR reactions were then separated on a 1.2% agarose gel, the amplicon excised, and gel-extracted with the Gel Extraction kit (Qiagen). The extracted DNA was used to optimize qPCR conditions. Using the amplicon template, the primer concentrations were first varied followed by the annealing/extension temperatures, which ranged from 58-68° C. in eight steps. The combination that gave the lowest quantification cycle (Cq) was used in the experiments (Table 2). The Cq was obtained with an automatic baseline determined by the CFX Manager Software (Bio-Rad). As positive controls, these standards were included in every plate that contained the experimental samples, along with no-DNA controls, in duplicates.
qPCR analysis was performed on a CFX96 Real-Time PCR Detection System (Bio-Rad) consisting of a C1000 Thermal Cycler and a CFX96 Real-Time System. The reaction was carried out in hard-shell, clear 96-well qPCR plates (Bio-Rad) and utilized the iTaq Universal SYBR Green Supermix (Bio-Rad). […]

sur cluster = test: High-throughput elicitor screen (HiTES), eGFPx3 reporter strains of the sur cluster; format: cell-based, Streptomyces albus J1074; conditions: attB::Psur-eGFPx3 and surE::eGFPx3, ~33 μM, 60 h, hit threshold 2.5-fold eGFP fluorescence
Experimental: These next four steps are seen be referring to the previously described example. In the previously described example, HiTES was carried out using the two constructs seen in FIGS. 2B and 2C with a ˜500-member natural products library. Each S. albus construct was grown in a 96-well format, supplemented with the compound library, and the effect of each compound on the silent BGC determined using eGFP-derived fluorescence. Interference from naturally fluorescent compounds in the library was eliminated by subtracting the […], immediately after addition of the library members.
Referring to FIGS. 3A and 3B, results for both genetic constructs are shown. These graphs show relative expression of a neutral site reporter, attB::Psur-eGFPx3 (FIG. 3A) or targeted sur reporter, surE::eGFPx3 (FIG. 3B) as a function of exogenously-supplied small molecules. Each bar represents the level of expression of sur in the presence of a single candidate elicitor. Plus signs denote the positive control, attB::PermE-eGFPx3. Minus signs denote the negative controls, attB::Psur-eGFPx3 (3A) or surE::eGFPx3 (3B) in the absence of any metabolites. The expression has been normalized to the positive control.
In this example, the threshold amount was a 2.5 fold induction of eGFP-derived fluorescence emission. Thus, hits were considered those that gave at least a 2.5-fold induction of eGFP-derived fluorescence emission. However, in other embodiments, hits may be those giving at least a 2 fold induction, more preferably at least a 3 fold induction, and more preferably at least a 4 fold induction.
Seed cultures for the reporter strains sur::eGFPx3, attB::Psur-eGFPx3, negative control wild-type, and positive control attB::PermE-eGFPx3 inoculated by transferring fresh spores (˜10^7) into 20 mL of YEME medium (per L: 3% (w/v) yeast extract, 5% peptone, 3% malt extract, 1% glucose and 10.7% sucrose, and 5 mM MgCl2.6H2O) in a 125 mL Erlenmeyer flask equipped with stain-less steel springs. The cultures were grown at 30° C. and 250 rpm for 3 days. Mycelia from each of the four cultures were collected by centrifugation (10 min, 3000 g, RT) and diluted into 150 mL of R4 medium to give a final concentration of 0.05% (w/v). R4 medium consisted of (per L) 0.5% (w/v) glucose, 0.1% yeast extract, 0.5% MgCl2.6H2O, 0.2% CaCl2.2H2O, 0.15% proline, 0.118% valine, 0.28% TES, 50 mg/L casamino acid, 100 mg/L K2SO4, and 1× trace element solution, which contains 40 mg/L ZnCl2, 200 mg/L FeCl3.6H2O, 10 mg/L CuCl2.2H2O, 10 mg/L MnCl2.4H2O, 10 mg/L Na2B4O7.10H2O, and 10 mg/L (NH4)6Mo7O24.4H2O).
Subsequently, the two reporter strains (sur::eGFPx3 and attB::Psur-eGFPx3) were each dispensed into 5× sterile, clear-bottom 96-well plates (150 μL per well) using a MultiFlo Microplate Dispenser (BioTek). A separate sterile 96-well separate plate was prepared for positive and negative controls; it contained the negative control (wt S. albus J1074) in columns 1-3, sur::eGFPx3 in columns 4-6, attB::Psur-eGFPx3 in columns 7-9, and the positive control attB::PermE-eGFPx3 in columns 10-12 of the plate. No elicitors were added to the control plates. […] Upon additional of the compound library, t=0 fluorescence reads were recorded on a Synergy H1MF plate reader (BioTek) using Aex=485 nm and Aem=505-650 nm in 5 nm steps. […]

cathepsin B = biological target: T1, cathepsin B (Homo sapiens, UniProt P07858); test: Cathepsin B inhibition assay (fluorescence kit); format: biochemical
T1 construct: purchased Sigma-Aldrich
Experimental: Cathepsin B inhibition assays were carried as previously reported using the Cathepsin B Inhibition assay kit (Sigma-Aldrich). The fluorescence-based assays was conducted in a final volume of 50 μL according to manufacturer instructions. Fluorescence emission was determined in a microtiter plate in kinetic mode (1 read per minute for 1 h) using a BioTek H1MF plate reader and Aex˜400/Acm˜505 nm. IC50 values were subsequently calculated according to instructions.

COc1c2ccoc2cc2oc(=O)ccc12 [Bergapten]
elicitor of gene cluster 2631 (ranking) (Gene cluster 2631): top three elicitors

COc1cc(CNC(=O)CCCC/C=C/C(C)C)ccc1O [Capsacin]
elicitor of gene cluster 3648 (ranking) (Gene cluster 3648): top four elicitors

OCc1c[nH]c2ccccc12 [Indole-3-carbinol]
elicitor of gene cluster 4477 (ranking) (Gene cluster 4477): top three elicitors | elicitor of gene cluster 4143 (ranking) (Gene cluster 4143): top three elicitors

CC#C[C@]1(O)CC[C@H]2[C@@H]3CCC4=CC(=O)CCC4=C3[C@@H](c3ccc(N(C)C)cc3)C[C@@]21C [Mifepristone]
elicitor of gene cluster 3648 (ranking) (Gene cluster 3648): top four elicitors

CC[C@H](C)/C=C(C)/C=C/C1=CC2=C(Cl)C(=O)[C@](C)(OC(C)=O)C(=O)C2=CO1 [Sclerotiorin]
elicitor of gene cluster 4286 (ranking) (Gene cluster 4286): top three elicitors

CCCC(=O)NCCCCC1NC(=O)[C@@H](C(C)CC)NC(=O)[C@H](C(C)CC)NC(=O)[C@@H](C)NC(=O)[C@H](C(C)CC)NC(=O)[C@@H](CC(C)C)NC(=O)[C@@H](Cc2ccccc2)NC(=O)[C@H](C(C)CC)NC1=O (stereo partly drawn) [acylsurugamide A] (cyclo([Ile(3ξ)][dA][Ile(3ξ)][dIle(3ξ)][ξK](Butyryl)[Ile(3ξ)][dF][dL]))
IC50 (S. cerevisiae): 3.5 µM

CNC1=CC(=O)c2cc(C)ncc2C1=O [compound 25, 3-methyl-7-methylamino-5,8-isoquinolinedione]
IC50 ([1]; read-out: IC50s (range over panel)): 0.2 to 50 µM | IC50 ([1]; read-out: mean IC50): 3.5 µM

CC(C)[C@@]1(NC(=O)[C@@H]2C[C@@H]3c4cccc5[nH]cc(c45)C[C@H]3N(C)C2)O[C@@]2(O)[C@@H]3CCCN3C(=O)[C@H](Cc3ccccc3)N2C1=O [dihydroergocristine]
induction of surA and surC (surA and surC): 3 fold | induction of the sur cluster in both reporter strains (hit ranking) (sur cluster): best hits

Oc1cc(O)cc(/C=C/c2ccc(O)c(O)c2)c1 [piceattanol]
induction of the sur cluster in both reporter strains (hit ranking) (sur cluster): best hits

CC(C)C[C@H]1NC(=O)[C@@H](Cc2ccccc2)NC(=O)[C@H](C(C)C)NC(=O)[C@H](CCCCN)NC(=O)[C@@H](C(C)C)NC(=O)[C@H](C(C)C)NC(=O)[C@@H](C)NC(=O)[C@H](C(C)C)NC1=O [surugamide I] (cyclo(KV[dF][dL]V[dA]V[dV]))
IC50 (cathepsin B): 9 µM

bromolaudanosine
induction of the sur cluster in both reporter strains (hit ranking) (sur cluster): best hits

ivermectin
upregulation of surC (surA and surC; at the optimal elicitor concentration, vs DMSO): 4.5 fold | induction of surA and surC (surA and surC): 3 fold | induction of the sur cluster in both reporter strains (hit ranking) (sur cluster): best hits | elicitor of gene cluster 4143 (ranking) (Gene cluster 4143): top three elicitors
